Data set [1] addresses T1, recombinant hormone-sensitive lipase (Homo sapiens, UniProt Q05469).
T1 construct: made in house
T1 sequence (Q05469 1-1076): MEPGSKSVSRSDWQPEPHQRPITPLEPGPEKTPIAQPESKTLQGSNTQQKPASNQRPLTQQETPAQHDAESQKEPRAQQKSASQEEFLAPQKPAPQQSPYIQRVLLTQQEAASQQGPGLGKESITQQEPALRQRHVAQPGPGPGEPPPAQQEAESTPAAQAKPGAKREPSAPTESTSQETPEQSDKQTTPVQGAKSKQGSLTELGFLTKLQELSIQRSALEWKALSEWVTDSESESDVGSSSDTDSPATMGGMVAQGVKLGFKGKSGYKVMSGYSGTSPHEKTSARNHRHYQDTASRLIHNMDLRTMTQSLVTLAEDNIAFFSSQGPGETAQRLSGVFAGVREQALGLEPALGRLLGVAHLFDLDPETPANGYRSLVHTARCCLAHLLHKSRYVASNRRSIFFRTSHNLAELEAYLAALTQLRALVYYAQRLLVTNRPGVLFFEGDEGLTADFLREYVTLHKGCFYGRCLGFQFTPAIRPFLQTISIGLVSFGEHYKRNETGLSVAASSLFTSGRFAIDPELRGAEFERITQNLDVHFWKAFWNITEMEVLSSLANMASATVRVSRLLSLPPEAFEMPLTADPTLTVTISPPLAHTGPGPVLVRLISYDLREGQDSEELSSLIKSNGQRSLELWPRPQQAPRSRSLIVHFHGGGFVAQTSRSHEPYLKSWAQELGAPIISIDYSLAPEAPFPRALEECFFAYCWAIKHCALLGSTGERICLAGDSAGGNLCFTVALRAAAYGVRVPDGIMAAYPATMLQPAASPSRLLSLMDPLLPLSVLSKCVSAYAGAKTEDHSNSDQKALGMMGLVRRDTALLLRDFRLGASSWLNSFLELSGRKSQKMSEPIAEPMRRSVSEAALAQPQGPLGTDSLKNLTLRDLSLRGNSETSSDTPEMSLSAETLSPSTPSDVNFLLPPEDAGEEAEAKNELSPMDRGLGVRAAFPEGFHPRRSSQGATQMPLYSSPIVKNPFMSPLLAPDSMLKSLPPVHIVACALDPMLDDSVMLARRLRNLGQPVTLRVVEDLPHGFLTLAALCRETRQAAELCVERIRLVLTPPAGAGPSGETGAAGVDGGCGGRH
Kind of data set: Inhibition of recombinant (purified) hormone-sensitive lipase on glycerol-stabilized triolein. The data set is classed as biochemical. The settings on record: test compound 100 μM, read-out: % inhibition Purified HSL. Here is the method: Recombinant hormone-sensitive lipase protein isolated from a bacterial expression vector was pre-incubated with a compound of the invention (e.g., 100 μM) prior to the addition of substrate, emulsified triolein phosphatidylcholine/phosphatidylinositol (PC/PI), to initiate the reaction. At various time points, aliquots of the reaction were taken, and the level of glycerol used as an index of enzyme activity. Pharmacological specificity is determined by incubating test compound with other mammalian and non-mammalian lipase enzyme systems to assess inhibition of activity. […]
In a similar manner to that described in Example 4 above, 2α-benzoyloxy-4,5,7,8,11αH-eudesman-8,12-olide at 100 μM was evaluated for ability to activity of recombinant hormone-sensitive lipase and hormone-sensitive lipase derived from a preparation of 3T3-cell lysate on glycerol-stabilized triolein.

One may read the melting point as the temperature, or range, at which the solid turns liquid. As usually defined, the inhibition is the share of the control response that was lost under treatment.

Where two headings read alike, the source gives them in different places.

Turning to `CC1C[C@H](OC(=O)c2ccccc2)C[C@]2(C)C[C@H]3OC(=O)[C@@H](C)[C@H]3CC12` (stereo partly drawn) [2α-benzoyloxy-4,5,7,8,11αH-eudesman-8,12-olide], the melting point lay in the range of 181 to 183 °C. In addition, the inhibition at 100 µM in data set [1] (triolein 30 μM) is 77%. In data set [1] (triolein 67 μM), the inhibition at 100 µM was determined as 78%. Moreover, the inhibition at 100 µM in data set [1] (triolein 100 μM) was determined as 82%. For the same molecule, in data set [1] (triolein 201 μM), the inhibition at 100 µM is 64%. Further, the inhibition at 100 µM in data set [1] (triolein 400 μM) was 50%. Moreover, in data set [1] (triolein 601 μM), the inhibition at 100 µM amounted to 40%. Moreover, the inhibition at 100 µM in data set [1] (triolein 800 μM) was 18%. In addition, the inhibition at 100 µM in data set [1] (triolein 1000 μM) is 27%.
